The target in test [1] is T1, hNaV1.7 channel (Homo sapiens, UniProt Q15858).
T1 construct: expressed in transfected cells
The experiment in a line: Automated patch-clamp block of hNaV1.7 peak Na+ current in CHO cells. It counts as cell-based. In outline: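 Automated whole-cell patch clamp on CHO cells stably expressing hNaV1.7, held at −100 mV at 18–22°C. Peak current evoked by 50 ms steps to −10 or 0 mV every 5 s; HwTx-IV analogues applied in extracellular solution with 0.3% BSA. Percent inhibition taken at steady-state block or after 15 min application.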
Background: Patch clamp records ionic current or voltage across a cell membrane.

In test [2] the target is T2, hNaV1.6 channel (Homo sapiens, UniProt Q9UQD0).
T2 construct: expressed in transfected cells
T2 sequence (Q9UQD0 whole entry): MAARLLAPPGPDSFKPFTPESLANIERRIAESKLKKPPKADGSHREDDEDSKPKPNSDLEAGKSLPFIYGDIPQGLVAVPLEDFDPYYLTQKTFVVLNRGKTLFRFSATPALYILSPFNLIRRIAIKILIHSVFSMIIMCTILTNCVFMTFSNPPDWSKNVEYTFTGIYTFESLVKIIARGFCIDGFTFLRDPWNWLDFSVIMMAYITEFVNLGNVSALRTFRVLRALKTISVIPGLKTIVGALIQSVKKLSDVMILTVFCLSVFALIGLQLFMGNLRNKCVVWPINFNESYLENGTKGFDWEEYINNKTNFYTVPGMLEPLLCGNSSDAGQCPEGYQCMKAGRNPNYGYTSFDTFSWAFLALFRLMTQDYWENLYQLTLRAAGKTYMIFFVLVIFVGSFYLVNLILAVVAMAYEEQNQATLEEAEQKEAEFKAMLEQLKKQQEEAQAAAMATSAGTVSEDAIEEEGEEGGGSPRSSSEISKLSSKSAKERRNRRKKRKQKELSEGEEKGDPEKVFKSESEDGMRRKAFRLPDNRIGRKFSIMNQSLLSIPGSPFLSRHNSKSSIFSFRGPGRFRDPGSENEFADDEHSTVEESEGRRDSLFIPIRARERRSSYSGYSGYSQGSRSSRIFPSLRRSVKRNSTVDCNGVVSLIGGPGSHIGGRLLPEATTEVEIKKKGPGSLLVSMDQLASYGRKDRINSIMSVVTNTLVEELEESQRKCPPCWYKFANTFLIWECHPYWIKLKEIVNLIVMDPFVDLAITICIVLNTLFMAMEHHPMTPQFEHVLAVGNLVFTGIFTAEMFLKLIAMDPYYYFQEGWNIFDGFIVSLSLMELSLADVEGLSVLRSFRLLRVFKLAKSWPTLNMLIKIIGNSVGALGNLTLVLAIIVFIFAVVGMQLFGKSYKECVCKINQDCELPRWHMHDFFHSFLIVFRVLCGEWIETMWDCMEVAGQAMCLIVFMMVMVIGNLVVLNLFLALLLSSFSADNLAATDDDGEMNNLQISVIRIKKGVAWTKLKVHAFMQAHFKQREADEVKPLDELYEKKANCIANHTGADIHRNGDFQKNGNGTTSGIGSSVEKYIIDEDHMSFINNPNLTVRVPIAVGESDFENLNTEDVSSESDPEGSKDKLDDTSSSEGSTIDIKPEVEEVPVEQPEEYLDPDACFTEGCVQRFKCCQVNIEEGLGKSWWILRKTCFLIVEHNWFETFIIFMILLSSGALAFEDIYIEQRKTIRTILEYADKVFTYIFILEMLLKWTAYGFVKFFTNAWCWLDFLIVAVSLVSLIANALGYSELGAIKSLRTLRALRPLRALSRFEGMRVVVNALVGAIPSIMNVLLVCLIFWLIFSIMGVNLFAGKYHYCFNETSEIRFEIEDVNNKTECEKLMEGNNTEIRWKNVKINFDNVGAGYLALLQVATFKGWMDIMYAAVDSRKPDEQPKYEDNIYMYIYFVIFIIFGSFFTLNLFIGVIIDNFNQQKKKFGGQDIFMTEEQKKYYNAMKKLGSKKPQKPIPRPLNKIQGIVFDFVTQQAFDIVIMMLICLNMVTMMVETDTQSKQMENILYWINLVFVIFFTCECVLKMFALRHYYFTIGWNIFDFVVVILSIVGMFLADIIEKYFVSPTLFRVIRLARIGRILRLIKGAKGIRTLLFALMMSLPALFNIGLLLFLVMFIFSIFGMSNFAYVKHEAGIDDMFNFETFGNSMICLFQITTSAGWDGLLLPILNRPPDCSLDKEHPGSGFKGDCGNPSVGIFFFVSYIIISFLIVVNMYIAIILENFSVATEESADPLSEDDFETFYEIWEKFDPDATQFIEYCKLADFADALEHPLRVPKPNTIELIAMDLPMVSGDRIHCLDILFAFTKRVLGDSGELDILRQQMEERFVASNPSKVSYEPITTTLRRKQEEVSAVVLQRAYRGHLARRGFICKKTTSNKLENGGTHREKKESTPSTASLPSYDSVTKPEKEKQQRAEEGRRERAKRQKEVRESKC
The experiment in a line: Automated patch-clamp block of hNaV1.6 peak Na+ current in HEK-293 cells. It counts as cell-based. An outline of the steps: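 Whole-cell automated patch clamp at −100 mV holding, room temperature (18–22°C), CsF-based internal, 0.3% BSA in external solution; 50 ms steps to −10 or 0 mV every 5 s. Percent peak-current inhibition taken at steady-state block or after 15 min application, used for dose-response curves.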

The values below come from paper PMC8722715 (Frontiers in Cell and Developmental Biology, 2021).

T1 sequence (Q15858 whole entry): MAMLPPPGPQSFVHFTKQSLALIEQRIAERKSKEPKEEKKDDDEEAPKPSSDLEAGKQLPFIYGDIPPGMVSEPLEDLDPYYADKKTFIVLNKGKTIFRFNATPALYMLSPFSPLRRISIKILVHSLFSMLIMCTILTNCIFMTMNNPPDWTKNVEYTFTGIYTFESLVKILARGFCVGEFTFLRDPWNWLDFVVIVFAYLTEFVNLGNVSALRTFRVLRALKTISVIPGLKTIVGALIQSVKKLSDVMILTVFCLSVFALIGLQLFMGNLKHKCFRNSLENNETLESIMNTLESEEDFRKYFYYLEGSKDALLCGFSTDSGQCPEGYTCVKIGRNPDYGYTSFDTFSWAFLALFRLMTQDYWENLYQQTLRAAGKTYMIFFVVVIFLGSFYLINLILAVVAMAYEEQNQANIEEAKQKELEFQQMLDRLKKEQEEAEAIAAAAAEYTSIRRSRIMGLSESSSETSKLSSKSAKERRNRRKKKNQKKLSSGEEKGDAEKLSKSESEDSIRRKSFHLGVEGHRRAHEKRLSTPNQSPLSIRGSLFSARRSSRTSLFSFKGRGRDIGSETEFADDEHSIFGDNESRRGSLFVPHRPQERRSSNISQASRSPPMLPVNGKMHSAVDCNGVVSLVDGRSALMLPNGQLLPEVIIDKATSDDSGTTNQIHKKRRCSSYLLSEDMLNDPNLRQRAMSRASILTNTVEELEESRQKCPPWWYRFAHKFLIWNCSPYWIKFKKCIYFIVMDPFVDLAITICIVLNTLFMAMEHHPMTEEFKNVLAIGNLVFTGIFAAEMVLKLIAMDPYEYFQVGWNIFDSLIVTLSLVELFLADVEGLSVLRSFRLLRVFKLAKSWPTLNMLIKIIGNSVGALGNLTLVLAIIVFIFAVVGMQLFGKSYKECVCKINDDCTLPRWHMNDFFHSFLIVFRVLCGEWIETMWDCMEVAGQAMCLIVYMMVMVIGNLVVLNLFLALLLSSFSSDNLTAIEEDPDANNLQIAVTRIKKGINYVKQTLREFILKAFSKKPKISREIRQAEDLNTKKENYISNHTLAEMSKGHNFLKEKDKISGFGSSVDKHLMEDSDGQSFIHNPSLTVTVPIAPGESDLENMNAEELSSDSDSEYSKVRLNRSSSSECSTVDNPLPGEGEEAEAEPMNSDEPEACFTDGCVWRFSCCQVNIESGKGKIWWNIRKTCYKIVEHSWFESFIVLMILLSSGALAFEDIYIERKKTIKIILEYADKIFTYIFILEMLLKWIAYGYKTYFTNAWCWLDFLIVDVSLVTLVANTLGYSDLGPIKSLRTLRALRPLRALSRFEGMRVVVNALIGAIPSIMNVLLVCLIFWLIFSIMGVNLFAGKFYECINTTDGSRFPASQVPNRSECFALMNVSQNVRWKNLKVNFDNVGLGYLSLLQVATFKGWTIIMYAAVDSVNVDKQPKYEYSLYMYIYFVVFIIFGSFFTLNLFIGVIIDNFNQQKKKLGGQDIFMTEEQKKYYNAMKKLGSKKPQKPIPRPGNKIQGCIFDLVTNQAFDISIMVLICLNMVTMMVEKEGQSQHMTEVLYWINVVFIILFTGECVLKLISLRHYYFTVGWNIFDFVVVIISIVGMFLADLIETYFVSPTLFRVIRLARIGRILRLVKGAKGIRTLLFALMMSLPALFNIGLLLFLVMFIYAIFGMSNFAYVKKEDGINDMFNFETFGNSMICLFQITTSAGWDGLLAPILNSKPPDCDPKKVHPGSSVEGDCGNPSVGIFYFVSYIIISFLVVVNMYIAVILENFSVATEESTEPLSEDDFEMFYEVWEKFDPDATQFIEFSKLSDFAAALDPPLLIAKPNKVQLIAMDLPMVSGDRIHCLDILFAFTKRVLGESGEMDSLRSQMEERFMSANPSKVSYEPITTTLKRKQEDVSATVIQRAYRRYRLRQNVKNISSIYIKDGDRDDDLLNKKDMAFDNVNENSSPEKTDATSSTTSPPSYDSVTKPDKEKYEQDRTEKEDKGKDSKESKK

Take `CC[C@H](C)[C@H](NC(=O)[C@H](CCC(N)=O)NC(=O)[C@H](Cc1c[nH]c2ccccc12)NC(=O)[C@H](CCCCN)NC(=O)[C@@H]1CSSC[C@@H]2NC(=O)[C@H](CCC(N)=O)NC(=O)[C@H](CC(=O)O)NC(=O)[C@H](CC(N)=O)NC(=O)[C@H](CO)NC(=O)[C@@H]3CCCN3C(=O)[C@H](CC(N)=O)NC(=O)[C@@H]3CSSC[C@H](NC(=O)[C@H](C(C)C)NC(=O)[C@H](CC(C)C)NC(=O)[C@H](CCCCN)NC(=O)[C@H](CO)NC(=O)[C@H](CO)NC(=O)[C@H](CCCCN)NC(=O)[C@H](CSSC[C@H](NC(=O)[C@@H](N)CCC(=O)O)C(=O)N[C@@H](CC(C)C)C(=O)N[C@@H](CCC(=O)O)C(=O)N[C@@H]([C@@H](C)CC)C(=O)N[C@@H](Cc4ccccc4)C(=O)N[C@@H](CCCCN)C(=O)N[C@@H](C)C(=O)N3)NC2=O)C(=O)N[C@@H](CO)C(=O)N[C@@H](CCCNC(=N)N)C(=O)N[C@@H](CCCCN)C(=O)N[C@@H]([C@@H](C)O)C(=O)N[C@@H](CCCNC(=N)N)C(=O)N[C@@H](Cc2c[nH]c3ccccc23)C(=O)N1)C(N)=O` [HwTx-IV Y^33W]: the concentration for half-maximal inhibition (IC50) in test [1] (CHO cells stably expressing hNaV1.7, SyncroPatch 384 PE whole-cell, holding -100 mV, -10 mV test pulse 50 ms every 5 s, room temperature 18-22°C, 0.3% BSA, steady state or end of 15-min application, mean, S.E.M. and n cells) came to 22.2 nM; in test [2] (HEK-293 cells stably expressing hNaV1.6, SyncroPatch 384 PE whole-cell, holding -100 mV, 0 mV test pulse 50 ms every 5 s, room temperature 18-22°C, 0.3% BSA, steady state or end of 15-min application, mean, S.E.M. and n cells), 207 nM. Moreover, in test [1] (ratio of analogue mean IC50 to HwTx-IV WT mean IC50 on hNaV1.7), the “hNaV1.7 IC50 versus WT” value is listed as 2.24. Besides, in test [2] (ratio of analogue mean IC50 to HwTx-IV WT mean IC50 on hNaV1.6), the “hNaV1.6 IC50 versus WT” value is reported as 0.91.

The term IC50 denotes the concentration at which inhibition is half-maximal. A higher IC50 goes with lower potency.
